The target in the assay is T1, IKZF2 (Homo sapiens, UniProt Q96SW2+Q9UKS7).
T1 construct: expressed in transfected cells
The assay is described as follows: HiBiT protein tagging assay, in vitro IKZF2 degradation (HEK293). It is filed as cell-based. Particulars: IKZF2-HiBiT reporter Flp-In T-REx HEK293 cells, doxycycline-induced, compound overnight (18-24 hr), normalized to DMSO control; for Dmax: read-out: IKZF2 Dmax (maximum degradation at the highest concentration tested). As to the method: In vitro degradation of IKZF1 and IKZF2 was measured using HiBiT protein tagging and detection technology (Promega).
HiBiT technology (Promega) was used to develop the quantitative assays to measure the cellular IKZFs level by tagging an 11 amino acid HiBit peptides VSGWRLFKKIS (SEQ ID NO:1) to the protein of interest. Reporter plasmids were generated by fusing a linker sequence (GSSGGSSG; SEQ ID NO:2) followed by the HiBiT tag at the C terminus of IKZF1 and IKZF2. The fusion fragments were subsequently cloned into pcDNA5 pcDNA™5/FRT/TO plasmids (Thermo Fisher, cat #V652020) downstream of the Tetracycline operator. The resulting plasmids were co-transfected with pOG44 Flp-Recombinase Expression Vector (Thermo Fisher, cat #V600520) into Flp-In™ T-REx HEK293 line (Thermo Fisher, cat #R78077) and a stable cell pool was selected by adding 100 μg/ml of Hygromycin (Thermo Fisher, cat #10687010). The reporter cell enabled Tet-On inducible reporter expression from a single copy of the integrated gene.
On Day 1, Cells were grown to ˜80% confluency in TC medium (DMEM Glutamax (Gibco10569), 10% Tet free FBS (Takara 631106), and PenStrep Glutamin (Gibco 10378)) in tissue culture flasks. Doxycycline was then added to a final concentration of 1 μg/ml to induce reporter expression at 37° C. overnight.
On Day 2, 125 nL of serially-diluted solution of testing compounds were dispensed into 384-well white solid assay plates via ECHO acoustic liquid handler. Cells were lifted by 0.25% Trypsin (Gibco 25200) then pelleted by centrifugation (Beckman Avanti J-E) at 500×g for 5 min. Cell pellets were resuspended in TC medium at the concentration of 3e5/mL and 25 μL of cell suspension were added into each well of compound-spotted plates. The plates were returned to a 37° C. incubator overnight (18-24 hr).
On Day 3, assay plates were removed from the TC incubator and 25 μL of Nano-Glo lytic detection system (Promega, cat #N3030) was added to each well. Plates were incubated at r.t. for 3 min with shaking, and luminescence was read using an Envision reader (Perkin Elmer).
All raw data was normalized to DMSO control (final concentration: 0.5%) wells as POC and plotted out for EC50 and Dmax (Maximum degradation at the highest concentration tested in the assay).
For orientation: HiBiT is a short tag that completes a luciferase, so light tracks the accessible tagged protein.

T1 sequence (Q9UKS7 1-500 isoform Q9UKS7-2): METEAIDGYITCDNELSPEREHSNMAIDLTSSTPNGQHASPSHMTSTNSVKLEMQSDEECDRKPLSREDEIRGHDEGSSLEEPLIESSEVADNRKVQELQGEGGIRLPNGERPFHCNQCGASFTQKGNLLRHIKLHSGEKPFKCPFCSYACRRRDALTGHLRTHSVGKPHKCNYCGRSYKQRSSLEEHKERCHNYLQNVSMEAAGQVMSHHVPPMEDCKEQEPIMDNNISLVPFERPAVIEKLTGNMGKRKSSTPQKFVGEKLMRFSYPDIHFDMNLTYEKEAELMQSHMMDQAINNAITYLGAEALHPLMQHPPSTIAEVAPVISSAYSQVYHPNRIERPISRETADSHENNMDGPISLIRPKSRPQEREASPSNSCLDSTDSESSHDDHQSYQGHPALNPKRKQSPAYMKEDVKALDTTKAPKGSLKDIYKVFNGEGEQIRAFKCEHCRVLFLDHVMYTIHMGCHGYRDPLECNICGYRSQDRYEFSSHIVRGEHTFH
T1 sequence (Q96SW2 whole entry): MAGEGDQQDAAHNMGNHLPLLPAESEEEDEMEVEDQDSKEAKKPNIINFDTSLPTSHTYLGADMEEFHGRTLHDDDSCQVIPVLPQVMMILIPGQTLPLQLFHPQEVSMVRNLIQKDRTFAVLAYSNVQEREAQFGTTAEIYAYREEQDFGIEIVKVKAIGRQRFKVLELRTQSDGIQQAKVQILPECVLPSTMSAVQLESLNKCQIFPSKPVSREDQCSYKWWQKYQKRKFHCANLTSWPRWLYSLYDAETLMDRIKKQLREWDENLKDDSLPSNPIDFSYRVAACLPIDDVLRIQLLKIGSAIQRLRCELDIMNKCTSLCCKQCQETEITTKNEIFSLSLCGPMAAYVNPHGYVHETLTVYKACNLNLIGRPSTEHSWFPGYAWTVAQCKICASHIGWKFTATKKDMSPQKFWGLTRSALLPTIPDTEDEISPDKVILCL
T1 sequence (Q16531 whole entry partner): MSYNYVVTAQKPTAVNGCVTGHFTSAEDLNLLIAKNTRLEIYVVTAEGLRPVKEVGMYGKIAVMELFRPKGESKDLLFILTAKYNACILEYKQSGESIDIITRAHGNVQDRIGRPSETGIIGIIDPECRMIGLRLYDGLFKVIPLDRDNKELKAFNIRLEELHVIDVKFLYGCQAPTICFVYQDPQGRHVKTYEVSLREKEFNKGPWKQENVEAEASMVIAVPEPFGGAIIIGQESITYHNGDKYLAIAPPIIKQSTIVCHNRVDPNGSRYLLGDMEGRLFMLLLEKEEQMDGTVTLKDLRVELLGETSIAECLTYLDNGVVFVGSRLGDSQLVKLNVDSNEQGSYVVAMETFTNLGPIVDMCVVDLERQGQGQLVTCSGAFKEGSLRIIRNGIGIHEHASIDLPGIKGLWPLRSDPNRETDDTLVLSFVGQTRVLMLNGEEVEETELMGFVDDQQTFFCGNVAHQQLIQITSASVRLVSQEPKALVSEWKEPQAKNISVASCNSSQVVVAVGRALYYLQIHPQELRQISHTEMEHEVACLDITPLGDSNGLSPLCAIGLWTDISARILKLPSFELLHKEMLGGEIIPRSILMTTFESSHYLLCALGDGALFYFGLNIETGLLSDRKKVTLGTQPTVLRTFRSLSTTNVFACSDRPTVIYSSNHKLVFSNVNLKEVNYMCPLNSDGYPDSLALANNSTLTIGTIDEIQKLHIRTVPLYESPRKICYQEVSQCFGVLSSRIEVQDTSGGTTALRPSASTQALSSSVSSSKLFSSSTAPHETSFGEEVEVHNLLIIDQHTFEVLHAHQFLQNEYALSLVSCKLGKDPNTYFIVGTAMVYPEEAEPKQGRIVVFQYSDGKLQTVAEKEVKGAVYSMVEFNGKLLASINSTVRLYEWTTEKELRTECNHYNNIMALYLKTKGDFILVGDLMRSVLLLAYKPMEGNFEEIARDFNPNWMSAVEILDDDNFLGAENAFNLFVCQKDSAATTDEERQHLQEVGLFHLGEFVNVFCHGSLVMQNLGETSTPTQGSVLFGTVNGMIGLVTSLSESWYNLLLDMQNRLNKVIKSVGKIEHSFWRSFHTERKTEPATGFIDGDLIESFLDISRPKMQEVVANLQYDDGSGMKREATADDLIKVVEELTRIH

As to `O=C1CCC(N2Cc3cc(O[C@H]4CN(Cc5ccccc5)CC[C@@H]4NCc4ccc(F)cc4)ccc3C2=O)C(=O)N1` (mixture of isomers) [Example 26], the Dmax was determined as 89%.
Consider `N[C@H]1CCN(Cc2ccccc2)C[C@@H]1Oc1ccc2c(c1)CN(C1CCC(=O)NC1=O)C2=O` (stereo partly shown) [Example 42a], for which the Dmax turned out to be 98%.
For the molecule `COc1ccc(CN2CC[C@H](NCc3ccccc3)[C@@H](Oc3ccc4c(c3)CN(C3CCC(=O)NC3=O)C4=O)C2)cc1` (mixture of isomers) [Example 33], the Dmax is 94%.
As to `CCNC1CCN(Cc2ccc3ccccc3c2)CC1Oc1ccc2c(c1)CN(C1CCC(=O)NC1=O)C2=O` (racemic) [Example 56], the Dmax was 96%.
Consider `O=C1CCC(N2Cc3cc(O[C@H]4CN(Cc5ccc(Cl)cc5)CC[C@@H]4NCc4ccccc4)ccc3C2=O)C(=O)N1` (mixture of isomers) [Example 30], for which the Dmax turned out to be 95%.
Consider `O=C1CCC(N2Cc3cc(O[C@@H]4CN(Cc5ccccc5)CC[C@H]4N4CC(Oc5ccccc5Cl)C4)ccc3C2=O)C(=O)N1` (relative stereo) [Example 54, 3-(5-(((3,4-trans)-1-benzyl-4-(3-(2-chlorophenoxy)azetidin-1-yl)piperidin-3-yl)oxy)-1-oxoisoindolin-2-yl)piperidine-2,6-dione], for which the “IKZF2 Dmax (maximum degradation at the highest concentration tested)” value is reported as 94%.
`CC(C)N[C@H]1CCN(Cc2ccn(C)n2)C[C@@H]1Oc1ccc2c(c1)CN(C1CCC(=O)NC1=O)C2=O` (stereo partly shown) [Example 66]: the Dmax worked out at 34%.
As for `O=C1CCC(N2Cc3cc(O[C@H]4CN(c5ccccc5)C[C@@H]4NCc4ccccc4)ccc3C2=O)C(=O)N1` (stereo partly drawn) [Example 39, 3-(5-(((3S,4S)-4-(benzylamino)-1-phenylpyrrolidin-3-yl)oxy)-1-oxoisoindolin-2-yl)piperidine-2,6-dione], the Dmax was 39%.
For `CC(=O)NC1CCN(Cc2ccccc2)CC1Oc1ccc2c(c1)CN(C1CCC(=O)NC1=O)C2=O` (stereo not drawn) [Example 48, N-((3,4-trans)-1-benzyl-3-((2-(2,6-dioxopiperidin-3-yl)-1-oxoisoindolin-5-yl)oxy)piperidin-4-yl)acetamide], the Dmax came to 69%.
Consider `O=C1CCC(N2Cc3cc(O[C@@H]4CN(Cc5ccccc5)CC[C@H]4NC(=O)NCc4ccccc4)ccc3C2=O)C(=O)N1` (relative stereo) [Example 55, 1-benzyl-3-((3,4-trans)-1-benzyl-3-((2-(2,6-dioxopiperidin-3-yl)-1-oxoisoindolin-5-yl)oxy)piperidin-4-yl)urea], for which the “IKZF2 Dmax (maximum degradation at the highest concentration tested)” value was 91%.
Regarding `O=C1CCC(N2Cc3cc(O[C@H]4CN(Cc5cc(F)ccc5F)CC[C@@H]4NCc4ccccc4)ccc3C2=O)C(=O)N1` (mixture of isomers) [Example 23], the Dmax is 88%.
Turning to `O=C1CCC(N2Cc3cc(O[C@H]4CN(Cc5ccc(F)cc5F)CC[C@@H]4NCc4ccccc4)ccc3C2=O)C(=O)N1` (mixture of isomers) [Example 21], the Dmax worked out at 92%.
On to `CC(C)N[C@H]1CCN(Cc2ncco2)C[C@@H]1Oc1ccc2c(c1)CN(C1CCC(=O)NC1=O)C2=O` (stereo partly shown) [Example 67], for which the Dmax came out at 64%.
The same measure, in the same setting: for `O=C1CCC(N2Cc3cc(O[C@H]4CN(Cc5cccc(F)c5)CC[C@@H]4NCc4ccccc4)ccc3C2=O)C(=O)N1` (mixture of isomers) [Example 19] the value was 89%; for `O=C1CCC(N2Cc3cc(O[C@H]4CN(Cc5cc(F)cc(F)c5)CC[C@@H]4NCc4ccccc4)ccc3C2=O)C(=O)N1` (mixture of isomers) [Example 25], 75%.
For `N#Cc1ccc(CN2CC[C@H](NCc3ccccc3)[C@@H](Oc3ccc4c(c3)CN(C3CCC(=O)NC3=O)C4=O)C2)cc1` (mixture of isomers) [Example 32], the Dmax turned out to be 94%.
`O=C1CCC(N2Cc3cc(O[C@H]4CN(Cc5c(F)cccc5F)CC[C@@H]4NCc4ccccc4)ccc3C2=O)C(=O)N1` (mixture of isomers) [Example 24]: the Dmax was determined as 93%.
On the same count and under the same terms, under `O=C1CCC(N2Cc3cc(OC4CN(Cc5ccccc5)CCC4NCc4ccncc4)ccc3C2=O)C(=O)N1` (racemic) [Example 15] stands 73%; under `CCN(CC)[C@H]1CCN(Cc2ccc(F)cc2)C[C@@H]1Oc1ccc2c(c1)CN(C1CCC(=O)NC1=O)C2=O` (stereo partly shown) [Example 65], 99%; under `CN1CC[C@@H](NCc2ccccc2)[C@H](Oc2ccc3c(c2)CN(C2CCC(=O)NC2=O)C3=O)C1` (relative stereo) [Example 1, 3-(5-((trans-4-(benzylamino)-1-methylpiperidin-3-yl)oxy)-1-oxoisoindolin-2-yl)piperidine-2,6-dione], 53%.
Consider `CC(C)NC1CCN(Cc2ccccc2)CC1Oc1ccc2c(c1)CN(C1CCC(=O)NC1=O)C2=O` (racemic) [Example 36], for which the Dmax came to 98%.
Regarding `CCN(CC)C1CCN(Cc2ccc3ccccc3c2)CC1Oc1ccc2c(c1)CN(C1CCC(=O)NC1=O)C2=O` (racemic) [Example 57], the Dmax stood at 98%.
For `O=C1CCC(N2Cc3cc(OC4CN(CC(F)F)CCC4NCc4ccccc4)ccc3C2=O)C(=O)N1` (stereo not drawn) [Example 49, 3-(5-(((3,4-trans)-4-(benzylamino)-1-(2,2-difluoroethyl)piperidin-3-yl)oxy)-1-oxoisoindolin-2-yl)piperidine-2,6-dione], the Dmax is 69%.
For the molecule `O=C1CCC(N2Cc3cc(OC4CN(Cc5ccncc5)CCC4NCc4ccccc4)ccc3C2=O)C(=O)N1` (racemic) [Example 9], the Dmax was 87%.
Take `O=C1CCC(N2Cc3cc(O[C@H]4CN(CCC(F)(F)F)CC[C@@H]4NCc4ccccc4)ccc3C2=O)C(=O)N1` (mixture of isomers) [Example 52]: the Dmax is 27%.
On the same count and under the same terms, for `O=C1CCC(N2Cc3cc(O[C@H]4CN(Cc5ccc(F)c(F)c5)CC[C@@H]4NCc4ccccc4)ccc3C2=O)C(=O)N1` (mixture of isomers) [Example 22] the value was 90%.
With `O=C1CCC(N2Cc3cc(O[C@H]4CN(Cc5ccc(F)cc5)CC[C@@H]4NCc4ccccc4)ccc3C2=O)C(=O)N1` (mixture of isomers) [Example 18], the Dmax worked out at 97%.
As to `C[C@@H](c1ccccc1)N1CC[C@H](NCc2ccccc2)[C@@H](Oc2ccc3c(c2)CN(C2CCC(=O)NC2=O)C3=O)C1` (mixture of isomers) [Example 50], the Dmax worked out at 71%.
Take `O=C1CCC(N2Cc3cc(O[C@H]4CN(Cc5cccc(F)c5F)CC[C@@H]4NCc4ccccc4)ccc3C2=O)C(=O)N1` (mixture of isomers) [Example 20]: the Dmax worked out at 86%.
Same read-out and setting: under `O=C1CCC(N2Cc3cc(O[C@H]4CN(Cc5ccc(-c6ccccc6)cc5)CC[C@@H]4NCc4ccccc4)ccc3C2=O)C(=O)N1` (mixture of isomers) [Example 31] stands 101%; under `O=C1CCC(N2Cc3cc(OC4CN(Cc5ccccc5)CCC4NCCF)ccc3C2=O)C(=O)N1` (racemic) [Example 59], 86%; under `O=C1CCC(N2Cc3cc(OC4CN(Cc5ccccc5)CCC4NCc4ccccc4)ccc3C2=O)C(=O)N1` (racemic) [Example 2], 94%.
On to `O=C1CCC(N2Cc3cc(O[C@@H]4CN(C5CC5)CC[C@H]4NCc4ccccc4)ccc3C2=O)C(=O)N1` (mixture of isomers) [Example 16], for which the Dmax was determined as 57%.
For `O=C1CCC(N2Cc3cc(OC4CN(Cc5ccccc5)CCC4NCC4CC4)ccc3C2=O)C(=O)N1` (racemic) [Example 37], the Dmax was determined as 98%.
Same read-out and setting: for `CCOC1CN(C2CCN(Cc3ccccc3)CC2Oc2ccc3c(c2)CN(C2CCC(=O)NC2=O)C3=O)C1` (racemic) [Example 58] the value was 96%; for `CCN(CC)C1CCN(Cc2ccccc2)CC1Oc1ccc2c(c1)CN(C1CCC(=O)NC1=O)C2=O` (racemic) [Example 11], 90%; for `O=C1CCC(N2Cc3cc(O[C@H]4CN(Cc5ccccc5)CC[C@@H]4NCc4ccccc4F)ccc3C2=O)C(=O)N1` (mixture of isomers) [Example 28], 90%.
As for `O=C1CCC(N2Cc3cc(OC4CN(Cc5ccccc5)CCC4N(C4CC4)C4CC4)ccc3C2=O)C(=O)N1` (racemic) [Example 61], the Dmax amounted to 82%.
Same read-out and setting: for `O=C1CCC(N2Cc3cc(O[C@H]4CN(Cc5ccccc5Cl)CC[C@@H]4NCc4ccccc4)ccc3C2=O)C(=O)N1` (mixture of isomers) [Example 3] the value was 85%.
Consider `CCNC1CCN(Cc2ccccc2)CC1Oc1ccc2c(c1)CN(C1CCC(=O)NC1=O)C2=O` (racemic) [Example 12], for which the Dmax came to 97%.

The record behind these values is patent US12122764B2, “IKAROS zinc finger family degraders and uses thereof” (Gilead Sciences, Inc., priority 2021, dated 2024).
